Series [1] in a line: pharmacokinetics after oral administration. In kind it is in vivo. To be noted: serum, 50 mg/kg of body weight, mice and guinea pigs, read-out: serum peak concentrations. The protocol:
c. Guideline data on the pharmacokinetics after oral administration. The preparations claimed are resorbed well on oral administration to mice and guinea pigs and after doses of 50 mg/kg of body weight give serum peak concentrations of 4-6 γ/ml for the case of the hydrochloride.

Series [2] deals with Trich. ment. The experiment in a line: series dilution test, MIC. In kind it is cell-based.
In series [3] the test system is Microsporon canis. The experiment in a line: series dilution test, MIC. In kind it is cell-based. To be noted: for MIC: read-out: MIC values.
The subject of series [4] is Candida albicans. The experiment in a line: series dilution test, MIC. It is filed as cell-based.
Series [5] concerns Torulopsis glab. The experiment in a line: series dilution test, MIC. It is filed as cell-based. Conditions: Table A.
For series [6], the system named is Cryptococcus neof. Description: series dilution test, MIC. It is filed as cell-based. Conditions: Table A.
In series [7] the test system is Aspergillus spec. The experiment in a line: series dilution test, MIC. It is filed as cell-based.
Series [8] relates to Sporothrix Schenckii. The experiment in a line: series dilution test, MIC. In kind it is cell-based. Conditions: Table A.
Series [9] has as its system Coccidioides immitis. Description: microbe, parasite or virus in culture. It is filed as cell-based. To be noted: for MIC values: Table A; for MIC: read-out: MIC values.
The subject of series [10] is Staph. aureus. Description: series dilution test, MIC. In kind it is cell-based. To be noted: Table A; for MIC: Staphylococcus aureus.
Series [11] concerns Trichomonas vaginalis. Description: series dilution test, MIC. It is filed as cell-based. Conditions: Table A.
In series [12] the test system is Candida albicans. Description: experimental candidosis in mice, oral administration. In kind it is in vivo, White mice of the CF1 SPF strain. The protocol: I. on candidosis in mice.
White mice of the CF1 SPF strain are infected with 1-3 × 10^6 Candida albicans cells intravenously by puncture of the tail vein. Untreated control animals die from the 3rd to the 6th day after infection as a result of the candidosis of the organs which develops. If the preparations claimed are given orally in doses of 2 × 6.25 - 2 × 150 mg/kg of body weight, starting from the day of infection and up to the 5th day after infection, the following survival rates are observed: […]

Series [13] has as its system Microsporon felinum. The experiment in a line: series dilution test, MIC. To be noted: Table B. In kind it is cell-based.
Series [14] has as its system Pityrosporum ovale. Description: series dilution test, MIC. In kind it is cell-based. Conditions: Table A; for MIC: Malassezia furfur.
The mark [15] stands for this setting: 2 × 6.25 mg/kg of body weight, 6.25 mg/kg.
Where [16] appears, read: 2 × 12.5 mg/kg of body weight, 12.5 mg/kg.
Setting [17] is: 2 × 25 mg/kg of body weight, 25 mg/kg.

Each structure is given as a SMILES string. Converted amounts (≈) assume the structure as drawn. Where two headings read alike, the source gives them in different places. Where only a bound is given, the exact number is not on record here.

In the case of `CC(C)(C)C(=O)C(Oc1ccc(-c2ccc(Cl)cc2)cc1)n1ccnc1.Cl` (stereo not drawn) [Example 1, 1-(imidazol-1-yl)-1-[4-(4-chlorophenyl)phenoxy]-3,3-dimethyl-butan-2-one hydrochloride], the Cmax in [1] is 4000 to 6000 ng/mL.

Take `C[C@@H]1[C@H](O)[C@@H](C)/C=C/C=C/CC/C=C/C=C/C=C/C=C/C(O[C@H]2O[C@H](C)[C@@H](O)[C@H](N)[C@@H]2O)CC2O[C@](O)(CC(O)C(O)CCC(O)CC(O)CC(O)CC(=O)O[C@H]1C)CC(O)C2C(=O)O` (stereo partly drawn) [Nystatin, nystatin]: the MIC values in series [2] (Table A, Trich. ment.) is 20 µg/mL (≈ 21.6 µM); in series [3] (Table A, Microsporon canis) it was 20 to 40 µg/mL; in series [4] (Table A), 5 µg/mL (≈ 5.4 µM); in [5], 5 µg/mL (≈ 5.4 µM); in series [6], 4 to 10 µg/mL; in series [7] (Table A), 40 to 100 µg/mL. For the same compound, the MIC values in [8] is 40 µg/mL (≈ 43.2 µM); in series [9], 40 µg/mL (≈ 43.2 µM); in series [10] it was greater than 100 µg/mL; in [11], > 1,000 γ/ml. Further, the “Survival rates on the 6th day after infection” value (“Survival rates on the 6th day” for short) is reported as less than 10% in series [12] (2 × 6.25 mg/kg of body weight); less than 10% in series [12] (2 × 12.5 mg/kg of body weight); less than 10% in series [12] (2 × 25 mg/kg of body weight); less than 10% in [12] (2 × 50 mg/kg of body weight); 30% in [12] (2 × 100 mg/kg of body weight); 50% in series [12] (2 × 150 mg/kg of body weight).

In the case of `OC(O)(c1ccccc1)C(Oc1cccc(Cl)c1)n1ccnc1` (stereo not drawn), the MIC in series [2] (Table B, Trichophyton ment.) turned out to be 4 µg/mL (≈ 12.1 µM); in series [4] (Table B) it was 4 µg/mL (≈ 12.1 µM); in [7] (Table B), 40 µg/mL (≈ 121 µM); in series [13], 40 µg/mL (≈ 121 µM).

With `CC(C)(C)C(=O)C(Oc1ccc(-c2ccc(Cl)cc2)cc1)n1ccnc1` (stereo not drawn) [drawing 14], the “Survival rates on the 6th day” value in series [12] (setting [15]) worked out at 55%; in [12] (setting [16]), 70%; in series [12] (setting [17]), 80%; in series [12] (2 × 50 mg/kg of body weight), 100%; in [12] (2 × 100 mg/kg of body weight), 100%; in [12] (2 × 150 mg/kg of body weight), 100%.

As for `O=C(c1ccccc1)C(Oc1cccc(Cl)c1)n1ccnc1` (stereo not drawn), the MIC in series [2] (Table B, Trichophyton ment.) came to 4 µg/mL (≈ 12.8 µM); in [4] (Table B), 10 µg/mL (≈ 32 µM); in series [7] (Table B), 40 µg/mL (≈ 128 µM); in series [13] it was 40 µg/mL (≈ 128 µM).

On to `O=C(c1ccccc1)C(Oc1ccc(Cl)cc1)(c1ccccc1)n1ccnc1` (stereo not drawn), for which the MIC was found to be 10 µg/mL (≈ 25.7 µM) in series [2] (Table B, Trichophyton ment.); 10 µg/mL (≈ 25.7 µM) in series [4] (Table B); 10 µg/mL (≈ 25.7 µM) in series [7] (Table B); 40 µg/mL (≈ 103 µM) in [13].

For the compound `CC(C)(C)C(=O)C(Cn1ccnc1)Oc1ccccc1-c1ccccc1` (stereo not drawn), the MIC is 8 µg/mL (≈ 23 µM) in series [2] (Table B, Trichophyton ment.); 4 µg/mL (≈ 11.5 µM) in series [4] (Table B); 8 µg/mL (≈ 23 µM) in series [7] (Table B).

Take `CC(C)(C)C(=O)C(Oc1ccc(-c2ccc(Cl)cc2)cc1)n1ccnc1` (stereo not drawn) [drawing 5]: the MIC values in series [2] (Table A, Trich. ment.) is less than 1 µg/mL; in series [3] (Table A, Microsporon canis) it was less than 1 µg/mL; in series [4] (Table A), 2 µg/mL (≈ 5.42 µM); in series [5], 2 µg/mL (≈ 5.42 µM); in [6] it was 1 to 2 µg/mL; in series [7] (Table A), less than 1 µg/mL. For the same compound, the MIC values in series [8] is 0.5 µg/mL (≈ 1.36 µM); in [9] it was 0.1 µg/mL (≈ 0.271 µM); in [14], less than 1 µg/mL; in [10] it was 4 µg/mL (≈ 10.8 µM); in [11], 250 µg/mL (≈ 678 µM).

`COC1=CC(=O)C[C@@H](C)[C@]12Oc1c(Cl)c(OC)cc(OC)c1C2=O` [Griseofulvin, griseofulvin]: the MIC in series [2] (Table A, Trich. ment.) was 5 to 10 µg/mL (≈ 14.2 to 28.3 µM); in series [3] it was 5 to 10 µg/mL (≈ 14.2 to 28.3 µM); in series [4] (Table A) it was greater than 100 µg/mL; in [5], greater than 100 µg/mL; in series [6], greater than 100 µg/mL; in series [7] (Table A), 40 to 100 µg/mL (≈ 113 to 283 µM). Besides, the MIC in series [8] (Sporothrix schenckii) was greater than 100 µg/mL; in [9], greater than 100 µg/mL; in series [14], greater than 100 µg/mL; in [10], greater than 100 µg/mL; in series [11], greater than 1000 µg/mL.

Take `CC(C)(C)C(=O)C(Cn1ccnc1)Oc1ccc(F)cc1` (stereo not drawn): the MIC is 8 µg/mL (≈ 27.6 µM) in [2] (Table B, Trichophyton ment.); 4 µg/mL (≈ 13.8 µM) in series [4] (Table B); 4 µg/mL (≈ 13.8 µM) in series [7] (Table B).

Take `CC(C)(C)C(=O)C(Oc1ccc(-c2ccc(Cl)cc2)cc1)n1ccnc1` (stereo not drawn) [drawing 15]: the “Survival rates on the 6th day” value is recorded as 95% in [12] (setting [15]); 95% in series [12] (setting [16]); 100% in series [12] (setting [17]); 100% in series [12] (2 × 50 mg/kg of body weight); 100% in [12] (2 × 100 mg/kg of body weight); 100% in series [12] (2 × 150 mg/kg of body weight).

As for `CC(C)(C)C(=O)C(Cn1ccnc1)Oc1ccc(Br)cc1` (stereo not drawn), the MIC worked out at 8 µg/mL (≈ 22.8 µM) in series [2] (Table B, Trichophyton ment.); 4 µg/mL (≈ 11.4 µM) in series [4] (Table B); 4 µg/mL (≈ 11.4 µM) in series [7] (Table B).

For the compound `CC(C)(C)C(=O)C(Oc1ccc(-c2ccc(Cl)cc2)cc1)n1ccnc1` (stereo not drawn) [drawing 4], the MIC was less than 1 µg/mL in series [2] (Table A, Trich. ment.); less than 1 µg/mL in [3] (Table A, Microsporon canis); 2 to 4 µg/mL (≈ 5.42 to 10.8 µM) in [4] (Table A); 2 µg/mL (≈ 5.42 µM) in series [5]; 1 to 2 µg/mL (≈ 2.71 to 5.42 µM) in series [6]; less than 1 µg/mL in [7] (Table A). Besides, the MIC is 0.1 µg/mL (≈ 0.271 µM) in series [9], less than 1 µg/mL in series [14], 8 µg/mL (≈ 21.7 µM) in [10] and 250 µg/mL (≈ 678 µM) in series [11]. Besides, the MIC values in [8] amounted to 0.1 µg/mL (≈ 0.271 µM).

For `O=C(c1ccccc1)C(Oc1c(Cl)cccc1Cl)n1ccnc1` (stereo not drawn), the MIC is 4 µg/mL (≈ 11.5 µM) in [2] (Table B, Trichophyton ment.); 4 µg/mL (≈ 11.5 µM) in series [4] (Table B); 100 µg/mL (≈ 288 µM) in series [7] (Table B); 40 µg/mL (≈ 115 µM) in series [13].

On to `CC(C)(C)C(=O)C(Cn1ccnc1)Oc1ccc(Cl)cc1` (stereo not drawn), for which the MIC was 4 µg/mL (≈ 13 µM) in series [2] (Table B, Trichophyton ment.); 4 µg/mL (≈ 13 µM) in series [4] (Table B); 8 µg/mL (≈ 26.1 µM) in series [7] (Table B).

For the origin of these results see patent US4000299A, “1-(Imidazol-1-yl)-1-[4-(4-chlorophenyl)phenoxy]-3,3-dimethylbutan-2-one, its salts and a process for their use” (Bayer Aktiengesellschaft, priority 1974, dated 1976).
